The experiment addresses T1, PfCNB-C (residues 275–428) (Plasmodium falciparum, UniProt Q8I719).
T1 construct: 275–428 for CNB-C; His-tag (pQTEV, TEV site) (N, cleaved yes); made in house; host or cells: E. coli TP2000 (delta-cya)
Description: FP binding measurements, isolated PfCNB-C domain. From the text:
A manually designed construct consisting of PfPKG amino acids 1–853 with codons optimized for expression in E.coli was synthesized at Life Technologies. All PfPKG constructs were ligated into the His-tagged bacterial expression vector, pQTEV [28]. In designing the expression constructs of each CNB, we used the sequence of the cGMP selective CNB-B that we recently reported. The domain boundaries for the individual constructs are: residues 1–173 for CNB-A, 158–294 for CNB-B, 275–428 for CNB-C and 401–542 for CNB-D. All PfPKG proteins were expressed in TP2000 E. coli. The cells were grown at 37 °C to an OD600nm of 0.6, then induced with 0.5 mM IPTG, and grown for an additional 10 hours at 25 °C. Cells were harvested by centrifugation, then resuspended in 50 mM potassium phosphate (pH 7.5), 500 mM NaCl and 1 mM β-mercaptoethanol, and lysed using a cell disruptor (Constant Systems).
The direct fluorescence polarization (FP) assay was performed following the procedure from Moll et al. Measurements were performed in 150 mM NaCl, 20 mM MOPS plus 0.005% (w/v) CHAPS pH 7.0 using the Fusion a-FP microtiter plate reader at room temperature in a 384 well microtiterplate (Perkin Elmer, Optiplate, black). The protein concentration was varied while the concentration of 8-Fluo-cAMP/8-Fluo-cGMP (Biolog Life Science Institute (Bremen, Germany)) was fixed at 1–5 nM. […] The KD values were calculated from sigmoidal dose-response curves.
For competition FP experiments, the protein concentration and the concentration of 8-Fluo-cGMP were fixed to give a polarization signal that was 50% of the maximum value obtained from direct FP measurements. […] FP signals were detected as indicated above. Data were analyzed with GraphPad Prism 5.03 by plotting the polarization signal in mPol against the logarithm of the cyclic nucleotide concentration. The EC50 values were calculated from sigmoidal dose-response curves.

From PMC4412288, “Crystal Structures of the Carboxyl cGMP Binding Domain of the Plasmodium falciparum cGMP-dependent Protein Kinase Reveal a Novel Capping Triad Crucial for Merozoite Egress” (PLoS Pathogens, 2015) come the findings set out here.

T1 sequence (Q8I719 275-428): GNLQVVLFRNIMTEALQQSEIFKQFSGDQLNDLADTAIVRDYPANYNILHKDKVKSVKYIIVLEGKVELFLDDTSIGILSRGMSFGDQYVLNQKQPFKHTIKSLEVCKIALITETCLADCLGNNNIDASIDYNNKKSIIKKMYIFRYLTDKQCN

As to `Nc1ncnc2c1nc(SCCNC(=S)Nc1ccc(-c3c4ccc(=O)cc-4oc4cc(O)ccc34)c(C(=O)O)c1)n2C1OC2COP(=O)(O)OC2C1O` (centres unmarked) [8-Fluo-cAMP], the “affinity of PfCNB-C for the fluorescent nucleotide” value is reported as “very weak affinity”. In the case of `Nc1nc2c(nc(SCCNC(=S)Nc3ccc4c(c3)C(=O)OC43c4ccc(O)cc4Oc4cc(O)ccc43)n2[C@@H]2O[C@@H]3COP(=O)(O)O[C@H]3[C@H]2O)c(=O)[nH]1` [8-Fluo-cGMP] it was “very weak affinity”.
